According to paper PMC3914206:

Legend:
Assay type in all cases: binding
Settings in all cases: Compound Concentration 10 µM
[1] = target: T1, panel of 442 kinases (Homo sapiens, UniProt P52564)
T1 construct: purchased KINOMEscan
T1 sequence (P52564 1-334): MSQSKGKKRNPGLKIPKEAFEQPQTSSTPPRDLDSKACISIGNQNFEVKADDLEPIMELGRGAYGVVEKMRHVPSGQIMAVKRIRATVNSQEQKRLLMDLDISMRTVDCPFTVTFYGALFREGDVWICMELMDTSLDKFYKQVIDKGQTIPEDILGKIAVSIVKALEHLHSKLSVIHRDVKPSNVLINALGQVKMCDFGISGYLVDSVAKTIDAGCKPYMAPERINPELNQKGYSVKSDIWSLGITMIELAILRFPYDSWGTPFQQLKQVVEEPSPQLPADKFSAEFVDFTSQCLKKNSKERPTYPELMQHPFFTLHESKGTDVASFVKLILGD
Description: (§1) We assessed the selectivity of members of this scaffold using the KINOMEscan methodology across a near comprehensive panel of 442 kinases [[18,27]].

[2] = target: T2, panel of 442 kinases (Homo sapiens, UniProt P06213)
T2 construct: purchased KINOMEscan
Description: as §1

[3] = target: T3, panel of 442 kinases (Homo sapiens, UniProt Q99640)
T3 construct: purchased KINOMEscan
T3 sequence (Q99640 1-499): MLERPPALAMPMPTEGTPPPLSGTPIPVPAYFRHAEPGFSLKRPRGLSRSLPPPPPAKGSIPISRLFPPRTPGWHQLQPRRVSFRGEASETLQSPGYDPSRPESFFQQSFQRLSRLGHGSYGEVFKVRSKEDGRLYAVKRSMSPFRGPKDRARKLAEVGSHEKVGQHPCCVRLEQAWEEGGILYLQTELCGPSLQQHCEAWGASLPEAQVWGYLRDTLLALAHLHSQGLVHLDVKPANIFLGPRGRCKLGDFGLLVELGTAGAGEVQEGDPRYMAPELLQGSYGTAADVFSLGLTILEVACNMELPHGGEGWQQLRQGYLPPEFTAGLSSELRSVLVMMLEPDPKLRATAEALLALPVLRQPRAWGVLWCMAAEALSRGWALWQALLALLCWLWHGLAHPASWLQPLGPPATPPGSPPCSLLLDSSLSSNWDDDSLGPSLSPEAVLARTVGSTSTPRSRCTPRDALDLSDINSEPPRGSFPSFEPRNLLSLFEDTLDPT
Description: as §1

T2 sequence (P06213 28-1382): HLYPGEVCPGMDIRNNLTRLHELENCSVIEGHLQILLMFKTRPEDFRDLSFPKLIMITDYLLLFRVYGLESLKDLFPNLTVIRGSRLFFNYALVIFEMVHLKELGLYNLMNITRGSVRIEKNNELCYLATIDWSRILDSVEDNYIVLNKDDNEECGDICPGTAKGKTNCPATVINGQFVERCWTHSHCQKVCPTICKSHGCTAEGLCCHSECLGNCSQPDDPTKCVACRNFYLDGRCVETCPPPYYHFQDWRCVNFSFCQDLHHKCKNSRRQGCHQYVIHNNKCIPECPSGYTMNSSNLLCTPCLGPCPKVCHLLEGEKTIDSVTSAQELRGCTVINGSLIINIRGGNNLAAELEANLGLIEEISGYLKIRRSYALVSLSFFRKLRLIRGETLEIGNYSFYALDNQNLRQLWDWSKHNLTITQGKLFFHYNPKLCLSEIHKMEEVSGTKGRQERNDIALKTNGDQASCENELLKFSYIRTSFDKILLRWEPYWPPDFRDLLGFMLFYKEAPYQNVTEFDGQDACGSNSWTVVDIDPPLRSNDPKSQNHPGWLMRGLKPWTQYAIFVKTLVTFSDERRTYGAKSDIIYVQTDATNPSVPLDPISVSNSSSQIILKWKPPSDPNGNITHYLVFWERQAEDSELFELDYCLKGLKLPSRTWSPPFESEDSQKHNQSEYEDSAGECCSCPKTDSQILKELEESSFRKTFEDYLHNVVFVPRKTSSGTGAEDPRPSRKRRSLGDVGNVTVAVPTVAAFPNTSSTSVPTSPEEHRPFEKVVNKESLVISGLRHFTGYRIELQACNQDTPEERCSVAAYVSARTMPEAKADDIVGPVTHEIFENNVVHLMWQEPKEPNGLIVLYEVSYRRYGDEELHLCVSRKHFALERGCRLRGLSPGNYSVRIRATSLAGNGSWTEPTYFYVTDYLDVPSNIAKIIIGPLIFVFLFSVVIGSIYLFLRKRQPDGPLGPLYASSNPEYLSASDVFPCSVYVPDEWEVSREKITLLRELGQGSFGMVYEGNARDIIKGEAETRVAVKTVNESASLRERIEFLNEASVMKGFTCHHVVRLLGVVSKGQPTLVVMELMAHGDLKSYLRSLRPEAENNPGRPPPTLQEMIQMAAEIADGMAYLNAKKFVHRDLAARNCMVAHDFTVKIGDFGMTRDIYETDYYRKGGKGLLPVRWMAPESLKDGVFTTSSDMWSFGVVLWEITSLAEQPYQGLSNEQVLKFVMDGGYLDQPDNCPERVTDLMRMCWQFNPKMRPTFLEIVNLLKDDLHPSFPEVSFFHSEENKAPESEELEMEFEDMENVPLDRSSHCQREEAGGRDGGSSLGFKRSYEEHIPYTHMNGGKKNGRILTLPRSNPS

SMILES: COc1cc(C(=O)N2CCC(N3CCN(C)CC3)CC2)ccc1Nc1ncc2c(n1)N(C)c1ccccc1C(=O)N2C [15 (LRRK2-IN-1)]
- KINOMEscan: MEK6 [1]: 83
- KINOMEscan: INSR [2]: 84
- KINOMEscan: PKMYT1 [3]: 80

SMILES: CCOc1cc(C(=O)N2CCC(N3CCN(C)CC3)CC2)ccc1Nc1ncc2c(n1)N(C1CCCC1)c1ccccc1C(=O)N2C [Compound 26]
- KINOMEscan: MEK6 [1]: 84
- KINOMEscan: INSR [2]: 100
- KINOMEscan: PKMYT1 [3]: 100

SMILES: COc1cc(C(=O)N2CCC(N3CCN(C)CC3)CC2)ccc1Nc1ncc2c(n1)N1CCc3cccc(c31)C(=O)N2C [Compound 24]
- KINOMEscan: MEK6 [1]: 66
- KINOMEscan: INSR [2]: 78
- KINOMEscan: PKMYT1 [3]: 70

SMILES: COc1cc(C(=O)N2CCC(N3CCN(C)CC3)CC2)ccc1Nc1ncc2c(n1)N(C1CCCC1)c1ccccc1C(=O)N2C [Compound 25, 11-cyclopentyl-2-((2-methoxy-4-(4-(4-methylpiperazin-1-yl)piperidine-1-carbonyl)phenyl)amino)-5-methyl-5H-benzo[e]pyrimido[5,4-b][1,4]diazepin-6(11H)-one]
- KINOMEscan: MEK6 [1]: 61
- KINOMEscan: INSR [2]: 88
- KINOMEscan: PKMYT1 [3]: 100
